Experimental data: a melting point compilation (Tetko et al.; mined from patent text by program, amines drawn as free bases though some values may be those of a salt)

For `COc1ccc(-c2cc(=O)n(CCC(=O)NCc3ccccc3)nc2-c2ccc(OC)cc2)cc1`, the melting point was 135 to 137 °C. For `COC(=O)C1CSC(c2cc3ccccc3[nH]2)=N1` (stereo not drawn), the melting point was 141 to 142 °C. For `CN(C)CC1CN(Cc2ccccc2)c2ccccc2N1C=O` (stereo not drawn), the melting point was 82 to 84 °C. Work on `C#Cc1ncn2c(C(F)(F)F)cc(-c3ccc(C(F)(F)F)cc3)nc12` yielded a melting point of 163 °C. Work on `Cc1cc2c(-c3ccccc3Cl)c(NC(=O)Nc3cccc(Cl)c3)c(=O)n(C)c2cc1C` yielded a melting point of 208 to 210 °C. Compound `CC(=O)OCC(OC(C)=O)C(OC(C)=O)C(C=O)OC(C)=O` (stereo not drawn) has a melting point of 161 to 162 °C. `COc1ccc(-c2c(N)cnc3ccc(Cl)cc23)c(OC)c1OC` showed a melting point of 180 to 181 °C. `COc1ccc(CCC(=O)c2c(O)cc(OC)cc2OC)cc1` gave a melting point of 110 °C. `CCCCCCCNC(=O)Nc1ccccc1C(=O)NCCCC1CCN(C(c2ccccc2)c2ccccc2)C1` (stereo not drawn) gave a melting point of 109 to 111 °C. In the case of `FC(F)Sc1nnc(-c2cccs2)s1`, the melting point was 63 to 64 °C. In the case of `CC1(C(N)=O)CCC=[N+]1[O-]` (stereo not drawn), the melting point was 134 to 135 °C. `CCc1oc2ccccc2c1C(=O)NCc1ccc2c(Br)c(OC(Cc3ccccc3)C(=O)OC)ccc2c1` (stereo not drawn) gave a melting point of 139 to 143 °C. With `O=C(O)CCCNC(=O)c1n[nH]cc1NC(=O)c1ccccn1` the melting point was 227 to 228 °C. Work on `COc1ccc2c(c1)C(NCCCCc1ncc(Br)cc1C)=NS2(=O)=O` yielded a melting point of 161 to 162 °C. In the case of `N#CCc1c[nH]c2ccc(NC(=O)c3ccc[nH]3)cc12`, the melting point was 216 to 218 °C. `Oc1ccc2c(c1)COc1c-2cc2ccc(O)cc2c1Cl` showed a melting point of 230 to 231 °C. In the case of `CCOC(=O)N1C(=S)NC(C)=C(C(=O)OC(C)C)C1c1cccc([N+](=O)[O-])c1` (single isomer, unassigned; (-)), the melting point was 120 to 122 °C. Work on `CCc1oc2ccccc2c1C(=O)NCc1ccc2c(Br)c(OCc3nnn[nH]3)ccc2c1` yielded a melting point of 235 to 238 °C. Work on `CC(=O)OC1CSC(Oc2cnccc2-c2ccncc2)C(OC(C)=O)C1OC(C)=O` (stereo not drawn) yielded a melting point of 185 °C. For `CC(C)(C)OC(=O)NS(=O)(=O)c1ccc(Cl)cc1`, the melting point was 98 to 99 °C. `O=S(c1ccccc1-c1ccccc1)C(F)(F)C(F)(F)C(F)(F)C(F)(F)C(F)(F)C(F)(F)C(F)(F)C(F)(F)F` (stereo not drawn) gave a melting point of 62 to 63 °C. With `CCC(CC)Nc1n[nH]c(=O)c2c1ccn2-c1c(C)cc(C)cc1C` the melting point was 183 to 185 °C. `OC1CSC(Oc2ccc(-c3ccncc3)nc2F)C(O)C1O` (stereo not drawn) gave a melting point of 196 °C. Work on `COc1ccc2c(c1)C(=O)N(CCCN(C)CCN1C(=O)c3ccccc3C(C)(C)C1=O)C(=O)C2(C)C` yielded a melting point of 158 °C. `O=S(=O)(Cl)c1ccc(Oc2ccc(F)cc2)cc1` showed a melting point of 76 °C. Compound `O=C1CC(NC(=O)C2CCCN3C(=O)CCC(NC(=O)c4ccccc4)C(=O)N23)C(OC2Cc3ccccc3C2)O1` (stereo not drawn) has a melting point of 140 °C. `COC(=O)C1(CC#N)C(=O)N(Cc2ccc(Br)cc2F)C(=O)c2ccccc21` (stereo not drawn) showed a melting point of 108 to 110 °C. `C=CS(=O)(=O)CC(=O)N1CCN(C(=O)CS(=O)(=O)C=C)CC1` showed a melting point of 215 °C. In the case of `CCOC(=O)COc1ccc(NC(=O)OC(C)(C)C)cc1OC`, the melting point was 81 to 83 °C. With `COc1ccc2sc(C(=O)Oc3ccccc3)c(Oc3ccccc3)c2c1` the melting point was 198 °C. For `Cc1cc(C(F)(F)F)nn1CC(=O)N1CCC(C(N)=S)CC1`, the melting point was 185 to 186 °C. `COC1=NC2C=C(C(=O)NCC3CC3)C(NC(=O)c3cc(C(F)(F)F)nn3-c3ncccc3Cl)=C(Cl)C2S1` (stereo not drawn) gave a melting point of 199 to 201 °C. In the case of `CN(C(=O)OC(C)(C)C)c1cc(OCc2ccccc2)ccc1N`, the melting point was 86 to 89 °C. For `CCN(C)C(=O)c1cc(C)c(C(c2cc(F)ccc2F)S(=O)(=O)c2ccc(F)cc2)cn1` (stereo not drawn), the melting point was 165 to 167 °C. Compound `Cc1cccc(OC(C)(C)C(=O)O)c1C` has a melting point of 71 to 73 °C. `CCOCc1nc2c(N)nc3cc(-c4cccnc4)ccc3c2n1CCCCNC(=O)OC(C)(C)C` showed a melting point of 117 to 119 °C. With `CC(C)N(C(=O)c1nn(-c2ccc(F)cc2F)c2c1C1CCC2C1)C(C)C` (stereo not drawn) the melting point was 107 to 109 °C. `Brc1cn2ccsc2n1` showed a melting point of 96 to 98 °C. In the case of `c1ccc(-c2cccc3c2CCN(Cc2c[nH]c4ncccc24)C3)cc1`, the melting point was 202 to 204 °C. `CCSc1nc(=O)[nH]cc1C` showed a melting point of 181 to 184 °C. `c1csc(NCCc2c[nH]cn2)n1` showed a melting point of 198 to 199 °C. `CN(CCCc1ccccc1)[C@H]1CC[C@H](c2ccc3[nH]c(=O)oc3c2)CC1` gave a melting point of 58 to 62 °C. Work on `CC#CCOc1ccc(S(=O)(=O)N2CCOCC2C(=O)O)cc1` (stereo not drawn) yielded a melting point of 40 to 42 °C. `Cc1c(Cc2cc(F)cc(Cl)c2)sc2c(-c3cccc(C(=O)NCCO)c3)cccc12` gave a melting point of 146 to 147 °C. Compound `COc1cc(C(C)=O)ccc1OCCCCN1CCN(c2n[nH]c3cc(Cl)ccc23)CC1` has a melting point of 189 to 191 °C. Compound `COc1ccc(-c2nc3sccn3c2/C=C/C(=O)c2ccc3c(c2)OCO3)cc1` has a melting point of 189 to 191 °C. In the case of `CC1(C)CC(=O)C2=C(C1)NC1=C(C(=O)CC(C)(C)C1)C2c1ccc(Cl)c(Oc2ccccc2)c1`, the melting point was 246 to 248 °C. With `O=C(Nc1cnccn1)Nc1cccc2c1C1C[C@@H](O)CCN1C2=O` (stereo partly drawn) the melting point was 250 °C. `Cc1cccc(NC(=O)c2cc(Cl)cc(C)n2)c1` gave a melting point of 95 °C. Compound `c1ccc2c(c1)c(-c1nnn[nH]1)cc1nnnn12` has a melting point of 250 to 251 °C. In the case of `CCSc1nc(Nc2ccc(F)cc2F)c(C(=O)OC)cc1F`, the melting point was 113 to 114 °C. Compound `CCNCc1nc(-c2ncn3c2CN(C)C(=O)c2cc(F)ccc2-3)no1` has a melting point of 166 to 168 °C. `Nc1cc(CCC(=O)NC23CC4CC(CC(C4)C2)C3)ccc1O` gave a melting point of 79 to 80 °C. For `CN1[C@H](Cc2ccc(C(N)=NO)cc2)[C@@H]2C(=O)N(Cc3ccccc3)C(=O)[C@@H]2C1(C)C` (racemic), the melting point was 189 to 192 °C. Compound `CCCc1c(OCCCOc2ccccc2C(=O)O)ccc(C(C)=O)c1O` has a melting point of 105 to 108 °C. For `Nc1c(-c2ccc(Cl)cc2)nnn1-c1ccc(C(F)(F)F)cc1F`, the melting point was 170 °C. `CCCCCC(CC(=O)Nc1cc(C(N)=O)ccc1C(C)(C)C)c1cccc(OC)c1O` (stereo not drawn) gave a melting point of 118 to 121 °C. `ONCc1ccc(N2CCC3(CC2)OCCO3)cc1` showed a melting point of 107 to 109 °C. Work on `COc1ccc(S(=O)(=O)Nc2cccnc2Nc2ccc(O)c(C)c2)cc1` yielded a melting point of 89 to 91 °C. In the case of `CCC(=O)Oc1ccc(/C(=C(/CC)c2ccccc2)c2ccc(/C=C/C(=O)O)cc2)cc1`, the melting point was 158 to 160 °C. Compound `CCOC(=O)c1c2ccc(Cl)cc2c(-c2ccccc2)n1C` has a melting point of 94 to 96 °C. `CC(C)[C@H](NC(=O)OCc1ccccc1)C(=O)NC(Cc1ccccc1)C(O)C(Cc1ccccc1)NC(=O)OC(C)(C)C` (stereo partly drawn) gave a melting point of 187 to 188 °C. In the case of `C[C@H]1Oc2ccc(F)cc2NC(=O)[C@H]1NC(=O)OC(C)(C)C`, the melting point was 141 to 148 °C. `N#Cc1ccc(C2(n3ccnc3)Cc3ccccc3C2)cc1` gave a melting point of 150 to 152 °C. With `COC(=O)c1ccc(N2CCCC2)c(NC(=O)C(CSC(C)=O)Cc2ccccc2)c1` (stereo not drawn) the melting point was 72 to 75 °C. Compound `CCOC(=O)CCNC(=O)c1cn2nc(NCCCN3CCC(OC(c4ccccc4)c4ccccc4)CC3)ccc2n1` has a melting point of 83 to 86 °C. With `CC(C)(C)c1cc(-c2nn(CC3CC3)c3ncccc23)cc(C(C)(C)C)c1O` the melting point was 135 to 137 °C. Work on `Cc1cc([N+](=O)[O-])c(NC(C)C(=O)N(C)OS(C)(=O)=O)c([N+](=O)[O-])c1` (stereo not drawn) yielded a melting point of 145 °C.
